EC50 data for 29 molecules are collected here from patent US8222414B2, “Indole compounds as an inhibitor of cellular necrosis” (LG Life Sciences Ltd., priority 2007, dated 2012).

A value given as a limit tells only on which side of the number the result lay.

The first experiment has as its system primary hepatocytes isolated from rats. Put plainly: Cell protective effects against doxorubicin in hepatocytes (WST-1 cell viability). Type of experiment: cell-based. The conditions noted are these: Hepatocyte; primary rat hepatocytes pretreated with compound for 30 min, then doxorubicin; viability by WST-1 after 24-48 h. On the procedure: Various endogenous/exogenous attacks on the cells trigger the mechanisms of cell death which is broadly classified into two types, i.e. apoptosis or necrosis. Using these cell death mechanisms, in the present experimental example, primacy hepatocytes isolated from rats were treated with drugs which were clinically shown to result in serious side-effects of hepatocyte toxicity or various chemicals which derive cell death, and the compounds synthesized in the Examples were estimated for their hepatocyte protective effects, after 24-48 h. The substances used to derive hepatocyte death include CCl4, ActD, H2O2, doxorubicin, anti-Fas Ab/Actinomycin D, acetaminophen, EtOH, CdCl2, palmitate, stearate, cyclophosphamide, terfenadine, diclofenac, simvastatin, and adefovir. Primary hepatocytes were isolated using the method of Seglen P O (Experimental Cell Research 74 (1972) pp 450-454). Briefly, hepatocytes were isolated according to the two-step collagenase perfusion method, and dead cells were removed by low speed (500 rpm) centrifugation for 10 min using percoll gradient (Kreamer B L etc, In Vitro Cellular & Developmental Biology 22 (1986) pp 201-211). During this step, the viability of cells was maintained 90% or above. The cells were suspended in HepatoZYME media (Gibco BRL), and the number of cells was counted. 1.5×10^4 cells in 100 μl were placed into the collagen-coated 96-well plate (BD biocoat), and adhered on the bottom for 3-4 h.
In order to assess the hepatocyte protective effect, above adhered cells were pretreated with the Example compounds for 30 min. At this time, the concentration of the Example compounds were serially diluted by 2-fold or 3-fold over 5 steps starting from 30 uM, 10 uM or 1 uM depending on the experiments, and the final concentration of DMSO was adjusted to 0.2%. 30 min after the treatment by compounds, cells were treated by the substances deriving hepatocyte death or hepatotoxic drugs at the concentrations indicated in Table 1. After 24-48 h, the viability of cells was determined to estimate the hepatocyte protective effects. The viability of cells was determined using WST-1 (MK-400, […]) method by the absorbance at 440 nm. Hepatocyte protective effects of the Example compounds were represented by “EC50” which was calculated from measured values. “EC50” herein means the concentration of the compound at which 50% of maximum protective effect is observed in the experiment.
In the case of `Cc1cc(NC2CCN(C(=O)C(F)(F)F)CC2)c2[nH]c(C3=N[C@@H](CC(=O)O)CS3)cc2c1` [Example 9, [(S)-2-(5-methyl-7-(1-trifluoroacetylpiperidin-4-yl)amino-1H-indol-2-yl)-4,5-dihydro-thiazol-4-yl]-acetic acid], the EC50 is above 2 µM. Still for that read-out and setting: to `Clc1cc(NC2CCOCC2)c2[nH]c(C3=N[C@H](CCN4CCNCC4)CS3)cc2c1` [Example 193, (5-Chloro-2-{(R)-4-[(piperazin-1-yl)-ethyl]-4,5-dihydro-thiazol-2-yl}-1H-indol-7-yl)-(tetrahydro-pyran-4-yl)-amine] belongs 0.65 µM. Same read-out and setting: then `CN(C)c1cccc(CC[C@H]2CSC(c3cc4cc(Cl)cc(NC5CCCC5)c4[nH]3)=N2)c1` [Example 177, (5-Chloro-2-{(S)-4-[2-(3-dimethylamino-phenyl)-ethyl]-4,5-dihydro-thiazol-2-yl}-1H-indol-7-yl)-cyclopentyl-amine], with above 1 µM; and `O=C(O)CC[C@@H]1CSC(c2cc3cc(F)cc(NC4CCCC4)c3[nH]2)=N1` [Example 109, 3-[(R)-2-(5-fluoro-7-cyclopentylamino-1H-indol-2-yl)-4,5-dihydro-thiazol-4-yl]-propionic acid], with 0.61 µM; and `O=C(O)C[C@H]1CSC(c2cc3cccc(NCC4CCOCC4)c3[nH]2)=N1` [Example 12, [(S)-2-(7-(tetrahydropyran-4-yl)methylamino-1H-indol-2-yl)-4,5-dihydro-thiazol-4-yl]-acetic acid], with 3.25 µM. Regarding `O=C(O)C[C@H]1CSC(c2cc3cccc(NCC4CCCCO4)c3[nH]2)=N1` (stereo partly drawn) [Example 10, 2-[(S)-2-(7-(tetrahydropyran-2-yl)methylamino-1H-indol-2-yl)-4,5-dihydro-thiazol-4-yl]-acetic acid], the EC50 amounted to 0.6 µM. As for `Cc1cc(NCC2CC2)c2[nH]c(C3=N[C@@H](CC(=O)O)CS3)cc2c1` [Example 21, [(S)-2-(5-methyl-7-cyclopropylmethylamino-1H-indol-2-yl)-4,5-dihydro-thiazol-4-yl]-acetic acid], the EC50 came out at 0.3 µM. Turning to `c1ccc(Oc2cc(NC3CCCC3)c3[nH]c(C4=N[C@@H](CCN5CCNCC5)CS4)cc3c2)cc1` [Example 230, (5-Phenoxy-2-{(S)-4-[(piperazin-1-yl)-ethyl]-4,5-dihydro-thiazol-2-yl}-1H-indol-7-yl)-cyclopentyl-amine], the EC50 is above 0.32 µM. Regarding `COC(=O)C[C@@H]1CSC(c2cc3cc(CN4CCCC4)cc(NC4CCCC4)c3[nH]2)=N1` [Example 40, [(R)-2-(5-(pyrrolidin-1-yl)methyl-7-cyclopentylamino-1H-indol-2-yl)-4,5-dihydro-thiazol-4-yl]-acetic acid methyl ester], the EC50 was found to be 15.6 µM. In the case of `COC(=O)C[C@@H]1CSC(c2cc3cc(CS(C)(=O)=O)cc(NC4CCCC4)c3[nH]2)=N1` [Example 97, [(R)-2-(5-methanesulfonylmethyl-7-cyclopentylamino-1H-indol-2-yl)-4,5-dihydro-thiazol-4-yl]-acetic acid methyl ester], the EC50 was determined as 4.1 µM. `c1ccc(Oc2cc(NCC3CCOCC3)c3[nH]c(C4=N[C@@H](CCN5CCOCC5)CS4)cc3c2)cc1` [Example 247, (5-Phenoxy-2-{(S)-4-[morpholin-4-yl-ethyl]-4,5-dihydro-thiazol-2-yl}-1H-indol-7-yl)-(tetrahydropyran-4-yl)methyl-amine]: the EC50 turned out to be 0.86 µM.

Consider `Cc1cc(NCC2CCOCC2)c2[nH]c(C3=N[C@@H](CCN4CCCC4C(N)=O)CS3)cc2c1` (stereo partly drawn) [Example 240, (5-Methyl-2-{(S)-4-[2-(aminocarbonyl)pyrrolidin-1-yl-ethyl]-4,5-dihydro-thiazol-2-yl}-1H-indol-7-yl)-(tetrahydropyran-4-yl)methyl-amine], for which the EC50 was determined as 0.28 µM.

For `CN(C)Cc1cc(NC2CCCC2)c2[nH]c(C3=N[C@H](CO)CS3)cc2c1` [Example 34, [(R)-2-(5-(dimethylamino)methyl-7-cyclopentylamino-1H-indol-2-yl)-4,5-dihydro-thiazol-4-yl]-methanol], the EC50 is 5.58 µM. In the case of `CCOc1cc(NC2CCCC2)c2[nH]c(C3=N[C@H](CC(=O)O)CS3)cc2c1` [Example 83, [(R)-2-(5-ethoxy-7-cyclopentylamino-1H-indol-2-yl)-4,5-dihydro-thiazol-4-yl]-acetic acid], the EC50 turned out to be 0.6 µM. The same measure, in the same setting: then `O=C(O)C[C@@H]1CSC(c2cc3cc(Br)cc(NC4CCCC4)c3[nH]2)=N1` [Example 68, [(R)-2-(5-bromo-7-cyclopentylamino-1H-indol-2-yl)-4,5-dihydro-thiazol-4-yl]-acetic acid], with 0.49 µM; and `Fc1cc(NC2CCCC2)c2[nH]c(C3=N[C@H](CCN4CCOCC4)CS3)cc2c1` [Example 201, (5-Fluoro-2-{(R)-4-[(morpholin-4-yl)-ethyl]-4,5-dihydro-thiazol-2-yl}-1H-indol-7-yl)-cyclopentyl-amine], with 0.33 µM; and `Cc1cc(NC2CCOCC2)c2[nH]c(C3=N[C@@H](CCN4CCOCC4)CS3)cc2c1` [Example 184, (5-Methyl-2-{(S)-4-[(morpholin-4-yl)-ethyl]-4,5-dihydro-thiazol-2-yl}-1H-indol-7-yl)-(tetrahydro-pyran-4-yl)-amine], with 0.18 µM.

In the case of `CC(C)CN(CC(C)C)c1cc(Oc2ccccc2)cc2cc(C3=N[C@@H](CCN4CCCC4)CS3)[nH]c12` [Example 228, (5-Phenoxy-2-{(S)-4-[(pyrrolidin-1-yl)-ethyl]-4,5-dihydro-thiazol-2-yl}-1H-indol-7-yl)-diisobutyl-amine], the EC50 is 0.13 µM. As to `CC1SC(c2cc3cccc(NCC4CCOCC4)c3[nH]2)=N[C@H]1C(O)C1CCCN1` (stereo partly drawn) [Example 241, (5-Methyl-[(S)-2-(7-(tetrahydropyran-4-yl)methylamino-1H-indol-2-yl)-4,5-dihydro-thiazol-4-yl])-pyrrolidin-2-yl-methanol], the half-maximal effective concentration (EC50) is 0.21 µM. Same read-out and setting: then `CS(=O)(=O)c1ccc(Oc2cc(NC3CCCC3)c3[nH]c(C4=N[C@H](CC(=O)O)CS4)cc3c2)cc1` [Example 94, [(R)-2-(5-(4-(methanesulfonyl)phenoxy)-7-cyclopentylamino-1H-indol-2-yl)-4,5-dihydro-thiazol-4-yl]-acetic acid], with 28.1 µM. Take `O=C(O)CC[C@@H]1CSC(c2cc3cc(Cl)cc(NC4CCCC4)c3[nH]2)=N1` [Example 101, 3-[(R)-2-(5-chloro-7-cyclopentylamino-1H-indol-2-yl)-4,5-dihydro-thiazol-4-yl]-propionic acid]: the EC50 fell in the range of 1 to 10 µM. On the same count and under the same terms, to `Cc1cc(NC2CCCC2)c2[nH]c(C3=N[C@@H](CC(=O)O)CS3)cc2c1` [Example 26, [(S)-2-(5-methyl-7-cyclopentylamino-1H-indol-2-yl)-4,5-dihydro-thiazol-4-yl]-acetic acid] belongs 0.2 µM. In the case of `O=C(O)C[C@@H]1CSC(c2cc3cc(Oc4ccccc4)cc(NCC4CCOCC4)c3[nH]2)=N1` [Example 15, [(R)-2-(5-phenoxy-7-(tetrahydropyran-4-yl)methylamino-1H-indol-2-yl)-4,5-dihydro-thiazol-4-yl]-acetic acid], the EC50 was found to be 0.6 µM.

As for `Cc1cc(NC2CCC(F)(F)CC2)c2[nH]c(C3=N[C@@H](CCN4CCNC(=O)C4)CS3)cc2c1` [Example 250, (5-Methyl-2-{(S)-4-[2-oxopiperazin-4-yl-ethyl]-4,5-dihydro-thiazol-2-yl}-1H-indol-7-yl)-4,4-difluorocyclohexyl-amine], the EC50 is 0.09 µM.

The same experiment, now with this note: primary rat hepatocytes pretreated with compound for 30 min, then doxorubicin; viability by WST-1 after 24-48 h.
Turning to `O=C(CO)N1CCN(CC[C@H]2CSC(c3cc4cc(Oc5ccccc5)cc(NC5CCCC5)c4[nH]3)=N2)CC1` [Example 229], the EC50 stood at 0.25 µM.

Regarding `CC(=O)N1CCN(CC[C@H]2CSC(c3cc4cc(Oc5ccccc5)cc(NC5CCCC5)c4[nH]3)=N2)CC1` [Example 239], the EC50 came to 0.83 µM. Consider `O=C(C1CCCO1)N1CCN(CC[C@H]2CSC(c3cc4cc(Oc5ccccc5)cc(NC5CCCC5)c4[nH]3)=N2)CC1` (some centres unmarked) [Example 234], for which the EC50 worked out at 0.09 µM. Regarding `c1ccc(Oc2cc(NC3CCCC3)c3[nH]c(C4=N[C@@H](CCN5CCN(c6ccccn6)CC5)CS4)cc3c2)cc1` [Example 235, (5-Phenoxy-2-{(S)-4-[(pyridin-2-yl)piperazine-ethyl]-4,5-dihydro-thiazol-2-yl}-1H-indol-7-yl)-cyclopentyl-amine], the half-maximal effective concentration (EC50) was above 0.54 µM. On the same count and under the same terms, then `CN(c1cc(F)cc2cc(C3=N[C@H](CO)CS3)[nH]c12)C1CCCC1` [Example 45, {(R)-2-[7-(methyl-cyclopentyl)amino-5-fluoro-1H-indol-2-yl]-4,5-dihydro-1,3-thiazol-4-yl}-methanol], with 1.32 µM.
